Test results taken from patent US9050378B2, “N2S2 chelate-targeting ligand conjugates” (Board of Regents, The University of Texas System, priority 2003, dated 2015).
Ends that are not written are not given here.

Assays:
[1] = system: human prostate cancer cells (LNCap, PC-3); test: In vitro cellular uptake in human prostate cancer cells; format: cell-based; settings: 0.5-2 hrs, LNCap and PC-3
Protocol: An in vitro cell culture using tumor cells was incubated with ^99mTc-EC-LHRH (4-6 μCi/100,000 cells/well) at 0.5-2 hrs in human prostate cancer cells. Two types cell lines were used. They are either sensitive to androgen (LNCap) or unresponsive to androgen (PC-3) therapy.

[2] = system: RBA CRL-1747 mammary tumor; test: Biodistribution in breast (mammary) tumor-bearing rats; format: in vivo, rat; settings: iv
Protocol: (§1) Biodistribution was assessed in mammary tumor-bearing rats (RBA CRL-1747, n=3/time interval, iv). Studies were performed 14 to 17 days after implantation when tumors reached approximately 1 cm in diameter. Following administration of the radiotracer, rats were sacrificed at 0.5-4 hrs. The selected tissues were excised, weighed and counted for radioactivity by using a gamma counter (Packard Instruments, Downers Grove, Ill.). The biodistribution of tracer in each sample was calculated as percentage of the injected dose per gram of tissue wet weight (% ID/g).
as §1, with “breast” for “mammary”

[3] = system: RBA CRL-1747 (breast cancer cells); test: In vitro cellular uptake compared to ^99mTc-EC in breast cancer cells; format: cell-based, rat; settings: 0.5-2 hrs
Protocol: An in vitro cell culture using tumor cells was incubated with ^99mTc-EC-celecoxib (4 μCi/50,000 cells/well) at 0.5-2 hrs in RBA CRL-1747.
An in vitro cell culture using tumor cells was incubated with ^99mTc-EC-LH antibody (4 μCi/50,000 cells/well) at 0.5-2 hrs in RBA CRL-1747 (breast cancer cells).
An in vitro cell culture using tumor cells was incubated with ^99mTc-EC-carnitine (4-6 μCi/50,000 cells/well) at 0.5-2 hrs in breast cancer cells.

[4] = system: A549 human lung cancer tumor; test: Tissue distribution in lung tumor-bearing nude mice; format: in vivo
Protocol: Female athymic nude mice (NCr-nu/nu, NCI, Bethasda, Md.) were inoculated with human lung cancer cells (A549 tumor cell line, 3×10^6 cells/mouse, intramuscular) by one author in the mid-dorsal region. After the tumor reached 6 mm, separate biodistribution studies using ^99mTc-EC-DG and 18F-FDG were conducted. Each received ^99mTc-EC-DG or 18F-FDG intravenously (n=3/time point). The injection activity was 1-3 μCi/mouse. The injected mass of ^99mTc-EC-DG was 0.2 mg/rodent.

[5] = In vitro cell culture of ^99mTc-EC-DG with or without transition chelators; format: cell-based
Text: It may also be important to include an antioxidant and a transition chelator in the composition to prevent oxidation of the ethylenedicysteine. For example, the antioxidant may be vitamin C (ascorbic acid). However, other antioxidants known to those of ordinary skill in the art, such as tocopherol, pyridoxine, thiamine, or rutin, may also be used. Any transition chelator known to those of ordinary skill in the art may be used in conjunction with the present invention. Examples of transition chelators include glucoheptonate, gluconate, glucarate, citrate, and tartarate.

## ^99mTc-EC-LHRH (QHWSYGLRPG; also: 99mTc-ethylenedicysteine label, site not given here; UniProt P01148 24-33, looked up)
[1]
  cellular uptake compared to ^99mTc-EC: significant increased uptake

## Cc1ccc(-c2cc(C(F)(F)F)nn2-c2ccc(S(=O)(=O)NC(=O)NCC(=O)NCCNC(=O)C3C[S][99Tc]45(=[O])[S]CC(C(=O)O)[N]4CC[N]35)cc2)cc1 (centres unmarked) [^99mTc-EC-celecoxib]
[2]; 0.5-4 hrs
  tumor-to-tissue count density ratios: increased tumor-to-tissue count density ratios as a function of time
[2]; 30 min
  BONE & JOINT: 0.324 ± 0.036 % of injected dose per gram of tissue weight
  BONE/MUSCLE: 2.419 ± 0.225
  Blood: 2.293 ± 0.038 % of injected dose per gram of tissue weight
  Heart: 0.475 ± 0.025 % of injected dose per gram of tissue weight
  Intestine: 0.406 ± 0.039 % of injected dose per gram of tissue weight
  Kidney: 4.963 ± 0.147 % of injected dose per gram of tissue weight
  Liver: 1.556 ± 0.046 % of injected dose per gram of tissue weight
  Lung: 1.033 ± 0.035 % of injected dose per gram of tissue weight
  Muscle: 0.133 ± 0.007 % of injected dose per gram of tissue weight
  Spleen: 0.594 ± 0.298 % of injected dose per gram of tissue weight
  Stomach: 0.370 ± 0.010 % of injected dose per gram of tissue weight
  Thyroid: 0.784 ± 0.090 % of injected dose per gram of tissue weight
  Tumor: 0.587 ± 0.062 % of injected dose per gram of tissue weight
  Tumor/Blood: 0.255 ± 0.022
  Tumor/Muscle: 4.375 ± 0.304
  UTERUS: 0.595 ± 0.003 % of injected dose per gram of tissue weight
  UTERUS/BLOOD: 0.259 ± 0.003
  UTERUS/MUSCLE: 4.471 ± 0.257
[2]; 2 h
  BONE & JOINT: 0.190 ± 0.003 % of injected dose per gram of tissue weight
  BONE/MUSCLE: 3.058 ± 0.114
  Blood: 1.388 ± 0.063 % of injected dose per gram of tissue weight
  Heart: 0.283 ± 0.017 % of injected dose per gram of tissue weight
  Intestine: 0.276 ± 0.061 % of injected dose per gram of tissue weight
  Kidney: 6.088 ± 0.305 % of injected dose per gram of tissue weight
  Liver: 1.461 ± 0.049 % of injected dose per gram of tissue weight
  Lung: 0.712 ± 0.098 % of injected dose per gram of tissue weight
  Muscle: 0.062 ± 0.003 % of injected dose per gram of tissue weight
  Spleen: 0.965 ± 0.056 % of injected dose per gram of tissue weight
  Stomach: 0.187 ± 0.004 % of injected dose per gram of tissue weight
  Thyroid: 0.449 ± 0.015 % of injected dose per gram of tissue weight
  Tumor: 0.424 ± 0.019 % of injected dose per gram of tissue weight
  Tumor/Blood: 0.307 ± 0.018
  Tumor/Muscle: 6.876 ± 0.704
  UTERUS: 0.334 ± 0.034 % of injected dose per gram of tissue weight
  UTERUS/BLOOD: 0.240 ± 0.021
  UTERUS/MUSCLE: 5.442 ± 0.852
[2]; 4 h
  BONE & JOINT: 0.178 ± 0.022 % of injected dose per gram of tissue weight
  BONE/MUSCLE: 4.314 ± 0.739
  Blood: 1.031 ± 0.033 % of injected dose per gram of tissue weight
  Heart: 0.224 ± 0.004 % of injected dose per gram of tissue weight
  Intestine: 0.190 ± 0.006 % of injected dose per gram of tissue weight
  Kidney: 6.363 ± 0.260 % of injected dose per gram of tissue weight
  Liver: 1.506 ± 0.080 % of injected dose per gram of tissue weight
  Lung: 0.500 ± 0.011 % of injected dose per gram of tissue weight
  Muscle: 0.002 ± 0.004 % of injected dose per gram of tissue weight
  Spleen: 0.981 ± 0.041 % of injected dose per gram of tissue weight
  Stomach: 0.139 ± 0.004 % of injected dose per gram of tissue weight
  Thyroid: 0.372 ± 0.021 % of injected dose per gram of tissue weight
  Tumor: 0.406 ± 0.004 % of injected dose per gram of tissue weight
  Tumor/Blood: 0.395 ± 0.014
  Tumor/Muscle: 9.715 ± 0.387
  UTERUS: 0.263 ± 0.005 % of injected dose per gram of tissue weight
  UTERUS/BLOOD: 0.255 ± 0.005
  UTERUS/MUSCLE: 6.278 ± 0.199
[3]
  cellular uptake compared to ^99mTc-EC: significant increase in uptake

## O=C(N[C@H]1C(O)O[C@H](CO)[C@@H](O)[C@@H]1O)[C@@H]1C[S][Tc]23(=[O])[S]C[C@@H](C(=O)N[C@H]4C(O)O[C@H](CO)[C@@H](O)[C@@H]4O)[N]2CC[N]13 (some centres unmarked) [^99mTc-EC-DG]
[4]; 30 min
  Blood: 1.607 ± 0.389 % of injected dose per gram of tissue weight
  Brain: 0.058 ± 0.008 % of injected dose per gram of tissue weight
  Heart: 0.611 ± 0.193 % of injected dose per gram of tissue weight
  Intestine: 0.510 ± 0.093 % of injected dose per gram of tissue weight
  Kidney: 6.726 ± 1.842 % of injected dose per gram of tissue weight
  Liver: 5.674 ± 2.089 % of injected dose per gram of tissue weight
  Lung: 1.048 ± 0.259 % of injected dose per gram of tissue weight
  Muscle: 0.264 ± 0.072 % of injected dose per gram of tissue weight
  Spleen: 3.240 ± 1.709 % of injected dose per gram of tissue weight
  Stomach: 0.540 ± 0.113 % of injected dose per gram of tissue weight
  Thyroid: 0.929 ± 0.212 % of injected dose per gram of tissue weight
  Tumor: 0.787 ± 0.163 % of injected dose per gram of tissue weight
  Tumor/Blood: 0.499 ± 0.022
  Tumor/Lung: 0.769 ± 0.047
  Tumor/Muscle: 3.352 ± 0.749
[4]; 2 h
  Blood: 0.977 ± 0.267 % of injected dose per gram of tissue weight
  Brain: 0.042 ± 0.006 % of injected dose per gram of tissue weight
  Heart: 0.336 ± 0.080 % of injected dose per gram of tissue weight
  Intestine: 0.417 ± 0.110 % of injected dose per gram of tissue weight
  Kidney: 5.687 ± 1.540 % of injected dose per gram of tissue weight
  Liver: 5.807 ± 1.708 % of injected dose per gram of tissue weight
  Lung: 0.721 ± 0.210 % of injected dose per gram of tissue weight
  Muscle: 0.148 ± 0.039 % of injected dose per gram of tissue weight
  Spleen: 4.205 ± 1.374 % of injected dose per gram of tissue weight
  Stomach: 0.439 ± 0.138 % of injected dose per gram of tissue weight
  Thyroid: 0.665 ± 0.207 % of injected dose per gram of tissue weight
  Tumor: 0.415 ± 0.123 % of injected dose per gram of tissue weight
  Tumor/Blood: 0.424 ± 0.022
  Tumor/Lung: 0.587 ± 0.046
  Tumor/Muscle: 2.754 ± 0.120
[4]; 4 h
  Blood: 0.787 ± 0.152 % of injected dose per gram of tissue weight
  Brain: 0.042 ± 0.006 % of injected dose per gram of tissue weight
  Heart: 0.318 ± 0.071 % of injected dose per gram of tissue weight
  Intestine: 0.374 ± 0.073 % of injected dose per gram of tissue weight
  Kidney: 4.318 ± 0.890 % of injected dose per gram of tissue weight
  Liver: 6.656 ± 1.786 % of injected dose per gram of tissue weight
  Lung: 0.606 ± 0.128 % of injected dose per gram of tissue weight
  Muscle: 0.147 ± 0.022 % of injected dose per gram of tissue weight
  Spleen: 5.933 ± 3.194 % of injected dose per gram of tissue weight
  Stomach: 0.541 ± 0.119 % of injected dose per gram of tissue weight
  Thyroid: 0.692 ± 0.119 % of injected dose per gram of tissue weight
  Tumor: 0.414 ± 0.161 % of injected dose per gram of tissue weight
  Tumor/Blood: 0.502 ± 0.120
  Tumor/Lung: 0.640 ± 0.120
  Tumor/Muscle: 2.795 ± 0.982
[4]; A549 nude mice, iv
  tumor-to-tissue ratios, ^99mTc-EC-DG versus 18F-FDG: higher tumor/muscle and tumor/brain ratios as a function of time
[5]
  stability with or without transition chelators (gluconate and glucarate): does not interfere with the stability
